In patent US6399570B1, “Antimicrobial/endotoxin neutralizing polypeptide” (priority 1999, dated 2002):

Experiments:
E. coli 0111 = test: Antimicrobial assay for LF polypeptides (CFU after 6 h); assay type: cell-based
Method: The antimicrobial activity of the catheptic polypeptide was measured against a clinical isolate, E. coli 0111. […] The 6 kDa catheptic fragment of LF is therefore at least as potent as twelve other natural antimicrobial polypeptides (H. G. Boman, J. Marsh, and J. A. Goode, Eds., Antimicrobial Peptides, (John Wiley & Sons Ltd., New York, N.Y., 1994)), and can function as a bactericidal agent. […] At 100 μM polypeptide, the number of viable bacteria was more than 1,000-fold greater in the cultures treated with the pepsinolytic versus cathepsinolytic fragment (FIG. 1). The basis for this difference in potency may be related to the additional, internal, pepsin cleavages which occur between the two disulfide bridges in the 6 kDa domain (Mann et al., J. Biol. Chem. 269: 23661-7 (1994); Bellamy et al., Biochim. Biophys. Acta 1121: 130-6 (1992)).
Antimicrobial assay for LF polypeptides. Cultures of E. coli 0111 (American Type Culture Collection #43887) were grown at 37° C. in 1% bactopeptone (BP) (Difco) in Dulbecco's phosphate buffered saline (dPBS) (Mediatech) with aeration by shaking (225 rpm). overnight cultures were diluted 8,000-fold in 2×concentrated BP/dPBS and mixed with an equal volume of sterile endotoxin-free distilled water containing serial dilutions of the polypeptide to be tested. The final assay volume was […] in a 12 mm×75 mm polypropylene tube (Falcon) with an ultimate dilution of the overnight cultures of 1:16,000 to yield an original inoculum of ˜1-2×10^4 CFU/ml. The final assay medium was physiological in ionic strength, 1% bactopeptone in 1×Dulbecco's phosphate buffered saline. Cultures were grown for 6 h at 37° C. with aeration as above and then cell density determined by measuring CFU/ml for each assay culture tube. Serial dilutions of each assay tube were plated on Luria Broth bactoagar and incubated for 24 h at 37° C. prior to counting colonies. All assays were done in triplicate and the standard deviation calculated for each concentration of inhibitor. Culture density at the beginning and end of the 6 h growth period was also determined from triplicate cultures lacking any polypeptide inhibitors. Untreated cultures typically grew to 1-2×10^8 CFU/ml in 6 h under these assay conditions.

cathepsin D = molecular target: T1, cathepsin D (Bos taurus, UniProt P80209); test: Exposure of LF digest to cathepsin D, persistence of the 6 kDa polypeptide; assay type: in vitro ADME, bovine; conditions: immunoblot
T1 construct: Prior to digestion with bovine spleen cathepsin D (Sigma); purchased Sigma; host or cells: bovine spleen (tissue-derived enzyme)
Description: To establish which protease(s) could be responsible for releasing the N-terminal domain, LF processing by several proteases relevant to inflammation or microbial infections, including elastase, cathepsins G and D, a matrix metalloproteinase, and the “V8” protease from S. aureus, was examined. Of these, only cathepsin D, a lysosomal protease abundant in phagocytes (Bever et al., Inflammation 13: 309-16 (1989); Levy et al., Infect. Immun. 57: 1632-4 (1989)), was able to liberate the N-terminus intact as a small, heparin-binding, polypeptide. Exposure of either iron-saturated or iron-free LF to even small amounts of cathepsin D (1/200th, w:w) for a period as brief as five minutes yielded the N-terminal 6 kDa polypeptide, detectable by immunoblot analysis, using the N-terminal peptide-specific antibody. […] MALDI mass spectrometry analysis indicated a molecular mass of 5741 Da, very close to the value of 5744 Da expected for a LF polypeptide starting at Gly-1 and ending with Ala-49.
Purification of LF from human colostrum and proteolytic liberation of the antimicrobial domain in vitro. Frozen colostrum was thawed at 37° C. and defatted by centrifugation for 40 min at 10,000×g at 4° C. […] LF concentration was determined spectrophotometrically at 280 nm (using E280nm 1 cm 0.1%=1.0402). […]

T1 sequence (P80209 45-390): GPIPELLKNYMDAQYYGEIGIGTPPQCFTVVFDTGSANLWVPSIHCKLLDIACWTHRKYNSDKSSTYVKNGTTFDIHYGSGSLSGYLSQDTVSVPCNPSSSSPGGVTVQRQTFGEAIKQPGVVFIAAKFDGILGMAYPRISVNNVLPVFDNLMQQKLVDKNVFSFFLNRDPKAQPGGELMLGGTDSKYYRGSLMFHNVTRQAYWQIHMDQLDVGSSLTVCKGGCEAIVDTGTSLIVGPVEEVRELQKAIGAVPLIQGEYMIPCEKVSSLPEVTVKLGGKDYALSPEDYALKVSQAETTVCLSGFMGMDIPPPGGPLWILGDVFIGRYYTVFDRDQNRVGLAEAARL

6 kDa polypeptide: 6 kDa fragment produced by cathepsin D digestion of human LF, amino acids 1-49 of SEQ ID NO: 2 (GRRRRSVQWCAVSQPEATKCFQWQRNMRKVRGPPVSCIKRDSPIQCIQA; listed as Homo sapiens)
reduction in cell growth (E. coli 0111; 100 μM polypeptide): greater than 10,000 fold
number of viable CFUs (E. coli 0111; 100 μM polypeptide, original inoculum 2.14×10^4 CFU/ml): 8.8×10^3 CFU/ml
minimum inhibitory concentration (MIC) (E. coli 0111; E. coli 0111, physiological ionic strength, 6 h, CFU): 1 to 5 µM
potency against bacteria relative to the fragment liberated by pepsin (E. coli 0111; from MICs): ~10 fold
stability of the polypeptide on longer exposure to cathepsin D (cathepsin D): stable and resistant to further degradation for at least three days
